From ChEMBL document CHEMBL1201862, “PubChem BioAssay data set” (2004)
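Where inhibition never reached the appropriate level, the endpoint shown equals the highest concentration tested. Otherwise, values were interpolated linearly from a five-concentration, 48-hour dose response in 96-well plates. GI50 = concentration required for 50% inhibition of growth.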 The source made the active and inactive calls. Rule as the data show it: active = GI50 up to about 1.1 µM and inactive = higher.

Tests used:
Assay in all cases: NCI-60 cell line screen, 48 h
[1] = tested on: KM12
[2] = tested on: Malme-3M
[3] = tested on: MDA-MB-435
[4] = tested on: A498
[5] = tested on: IGROV-1
[6] = tested on: OVCAR-5
[7] = tested on: EKVX
[8] = tested on: U-251
[9] = tested on: RPMI-8226
[10] = tested on: COLO 205
[11] = tested on: UACC-62
[12] = tested on: A549
[13] = tested on: Hs-578T
[14] = tested on: SK-MEL-28
[15] = tested on: MDA-N
[16] = tested on: OVCAR-8
[17] = tested on: UO-31
[18] = tested on: SK-MEL-5
[19] = tested on: HCC 2998
[20] = tested on: SR
[21] = tested on: HCT-15
[22] = tested on: HOP-92
[23] = tested on: SNB-19
[24] = tested on: 786-0
[25] = tested on: HCT-116
[26] = tested on: SK-MEL-2
[27] = tested on: NCI-H23
[28] = tested on: LOX IMVI
[29] = tested on: K562
[30] = tested on: OVCAR-4
[31] = tested on: MDA-MB-231
[32] = tested on: T47D
[33] = tested on: BT-549
[34] = tested on: SW-620
[35] = tested on: DU-145
[36] = tested on: SN12C
[37] = tested on: CAKI-1
[38] = tested on: HT-29
[39] = tested on: MCF7
[40] = tested on: UACC-257
[41] = tested on: HOP-62
[42] = tested on: SF-539
[43] = tested on: SNB-75
[44] = tested on: NCI/ADR-RES
[45] = tested on: PC-3
[46] = tested on: ACHN
[47] = tested on: SK-OV-3
[48] = tested on: TK-10
[49] = tested on: NCI-H522
[50] = tested on: M14
[51] = tested on: CCRF-CEM
[52] = tested on: HL-60
[53] = tested on: NCI-H226
[54] = tested on: MOLT-4
[55] = tested on: OVCAR-3
[56] = tested on: SF-268
[57] = tested on: NCI-H460
[58] = tested on: SF-295
[59] = tested on: RXF 393

For O=C1C=CC(=O)c2c1ccc1c3ccccc3n(CCCCCCCCCCCCn3c4ccccc4c4ccc5c(c43)C(=O)C=CC5=O)c21, the GI50 [1] was > 100 µM (inactive), the GI50 [2] was > 100 µM (inactive) and the GI50 [3] was > 100 µM (inactive). For the same compound, the GI50 [4] was > 100 µM (inactive), the GI50 [5] was > 100 µM (inactive) and the GI50 [6] was > 100 µM (inactive). For the same compound, the GI50 [7] was > 100 µM (inactive), the GI50 [8] was > 88.7 µM (inactive) and the GI50 [9] was > 100 µM (inactive). For the same compound, the GI50 [10] was > 100 µM (inactive), the GI50 [11] was > 100 µM (inactive) and the GI50 [12] was > 100 µM (inactive). For the same compound, the GI50 [13] was > 100 µM (inactive), the GI50 [14] was > 100 µM (inactive) and the GI50 [15] was > 100 µM (inactive). For the same compound, the GI50 [16] was > 100 µM (inactive), the GI50 [17] was > 100 µM (inactive) and the GI50 [18] was > 100 µM (inactive). For the same compound, the GI50 [19] was > 46.5 µM (inactive), the GI50 [20] was 50.5 µM (inactive) and the GI50 [21] was over 100000 nM. The GI50 [22] was > 100 µM (inactive), the GI50 [23] was > 100 µM (inactive) and the GI50 [24] was > 65.8 µM (inactive). The GI50 [25] was > 100 µM (inactive), the GI50 [26] was > 100 µM (inactive) and the GI50 [27] was > 100 µM (inactive). For the same compound, the GI50 [28] was > 100 µM (inactive), the GI50 [29] was > 72.4 µM (inactive) and the GI50 [30] was > 100 µM (inactive). The GI50 [31] was > 100 µM (inactive), the GI50 [32] was > 100 µM (inactive) and the GI50 [33] was > 100 µM (inactive). The GI50 [34] was > 100 µM (inactive), the GI50 [35] was > 100 µM (inactive) and the GI50 [36] was > 100 µM (inactive). For the same compound, the GI50 [37] was > 100 µM (inactive), the GI50 [38] was > 100 µM (inactive) and the GI50 [39] was > 100 µM (inactive). The GI50 [40] was > 100 µM (inactive), the GI50 [41] was > 85.5 µM (inactive) and the GI50 [42] was > 100 µM (inactive). The GI50 [43] was > 100 µM (inactive), the GI50 [44] was > 100 µM (inactive) and the GI50 [45] was > 100 µM (inactive). For the same compound, the GI50 [46] was > 100 µM (inactive), the GI50 [47] was > 100 µM (inactive) and the GI50 [48] was > 100 µM (inactive). For the same compound, the GI50 [49] was > 83.6 µM (inactive), the GI50 [50] was > 100 µM (inactive) and the GI50 [51] was 26.3 µM (inactive). For the same compound, the GI50 [52] was 46.7 µM (inactive), the GI50 [53] was > 100 µM (inactive) and the GI50 [54] was 49.9 µM (inactive). The GI50 [55] was > 100 µM (inactive), the GI50 [56] was > 100 µM (inactive) and the GI50 [57] was > 100 µM (inactive). For the same compound, the GI50 [58] was > 100 µM (inactive) and the GI50 [59] was > 100 µM (inactive).
For CC1OC(OC2C(O[C@H]3CC[C@@]4(C)C(=CC[C@H]5[C@@H]6C[C@@H]7O[C@]8(CC[C@@H](C)CO8)[C@@H](C)[C@@H]7[C@@]6(C)CC[C@@H]54)C3)OC(CO)C(O)C2O)C(O)C(O)C1O (stereo partly drawn), the GI50 [1] was 0.838 µM (active), the GI50 [2] was 3.15 µM (inactive) and the GI50 [3] was 1.41 µM (inactive). For the same compound, the GI50 [4] was 1.51 µM (inactive), the GI50 [5] was 2.8 µM (inactive) and the GI50 [6] was 2.93 µM (inactive). For the same compound, the GI50 [7] was 3.1 µM (inactive), the GI50 [8] was 0.544 µM (active) and the GI50 [9] was 0.698 µM (active). For the same compound, the GI50 [10] was 2.95 µM (inactive), the GI50 [11] was 1.4 µM (inactive) and the GI50 [12] was 0.647 µM (active). The GI50 [13] was 1.86 µM (inactive), the GI50 [14] was 5.31 µM (inactive) and the GI50 [15] was 3.29 µM (inactive). For the same compound, the GI50 [16] was 1.45 µM (inactive), the GI50 [17] was 0.638 µM (active) and the GI50 [18] was 3.97 µM (inactive). The GI50 [19] was 1.11 µM (active), the GI50 [20] was 2.77 µM (inactive) and the GI50 [21] was 1960 nM. For the same compound, the GI50 [22] was 2.95 µM (inactive), the GI50 [23] was 1.01 µM (active) and the GI50 [24] was 1.14 µM (inactive). The GI50 [25] was 1.54 µM (inactive), the GI50 [26] was 2.63 µM (inactive) and the GI50 [27] was 2.28 µM (inactive). For the same compound, the GI50 [28] was 0.805 µM (active), the GI50 [29] was 1.57 µM (inactive) and the GI50 [30] was 1.22 µM (inactive). For the same compound, the GI50 [31] was 1.14 µM (inactive), the GI50 [32] was 3.76 µM (inactive) and the GI50 [33] was 4.49 µM (inactive). For the same compound, the GI50 [34] was 0.681 µM (active), the GI50 [35] was 1.26 µM (inactive) and the GI50 [36] was 1.1 µM (active). The GI50 [37] was 1.7 µM (inactive), the GI50 [38] was 0.962 µM (active) and the GI50 [39] was 1.82 µM (inactive). The GI50 [40] was 1.8 µM (inactive), the GI50 [41] was 1.34 µM (inactive) and the GI50 [42] was 1.21 µM (inactive). For the same compound, the GI50 [43] was 1.24 µM (inactive), the GI50 [44] was 1.99 µM (inactive) and the GI50 [45] was 0.581 µM (active). The GI50 [46] was 1.58 µM (inactive), the GI50 [47] was 3.05 µM (inactive) and the GI50 [48] was 1.53 µM (inactive). The GI50 [49] was 1.28 µM (inactive), the GI50 [50] was 1.22 µM (inactive) and the GI50 [51] was 0.507 µM (active). For the same compound, the GI50 [52] was 0.74 µM (active), the GI50 [53] was 2.49 µM (inactive) and the GI50 [54] was 2.64 µM (inactive). The GI50 [55] was 3.4 µM (inactive), the GI50 [56] was 2.44 µM (inactive) and the GI50 [57] was 0.327 µM (active). The GI50 [58] was 1.15 µM (inactive) and the GI50 [59] was 1.54 µM (inactive).
